Patent US6849612B2, “Oligonucleotide modulation of cell adhesion” (ISIS Pharmaceuticals, Inc., priority 1993, dated 2005)
Strand notation (5' to 3'): a small letter for the sugar, then the base; units joined by * are phosphorothioate-linked, units joined directly phosphodiester-linked; [ ] holds rarer units or linkages, { } end groups; capitals alone tell only the bases. d = 2'-deoxy (DNA)

How the values were obtained:
ICAM-1 [1] = test: ELISA of ICAM-1 cell surface expression in oligonucleotide-pretreated, cytokine-stimulated HUVEC; assay type: cell-based, human
[2] = tested on: adherence of HL-60 cells to human umbilical vein endothelial cells; test: Cell adherence assay: DMSO differentiated HL-60 cells to TNF treated HUVEC; assay type: cell-based
Procedure: Target cells are grown as a monolayer in a multiwell plate, treated with oligonucleotide followed by cytokine. The adhering cells are then added to the monolayer cells and incubated for 30 to 60 minutes at 37° C. and washed to remove nonadhering cells. Cells adhering to the monolayer may be determined either by directly counting the adhering cells or prelabeling the cells with a radioisotope such as ^51Cr and quantitating the radioactivity associated with the monolayer as described. Dustin and Springer, J. Cell Biol. 1988, 107, 321-331. Antisense oligonucleotides may target either ICAM-1, VCAM-1 or ELAM-1 in the assay.
An example of the effects of antisense oligonucleotides targeting ICAM-1 mRNA on the adherence of DMSO differentiated HL-60 cells to tumor necrosis factor treated human umbilical vein endothelial cells is shown in FIG. 7. Human umbilical vein endothelial cells were grown to 80% confluence in 12 well plates. The cells were treated with 2 μM oligonucleotide diluted in Opti-MEM containing 8 μM DOTMA for 4 hours at 37° C. The medium was removed and replaced with fresh endothelial cell growth medium (EGM-UV) containing 2 μM of the indicated oligonucleotide and incubated 4 hours at 37° C. Tumor necrosis factor, 1 ng/ml, was added to cells as indicated and cells incubated for an additional 19 hours. The cells were washed once with EGM-UV and 1.6×10^6 HL-60 cells differentiated for 4 days with 1.3% DMSO added. The cells were allowed to attach for 1 hour at 37° C. and gently washed 4 times with Dulbecco's phosphate-buffered saline (D-PBS) warmed to 37° C. Adherent cells were detached from the monolayer by addition of 0.25 ml of cold (4EC) phosphate-buffered saline containing 5 mM EDTA and incubated on ice for 5 minutes. The number of cells removed by treatment with EDTA was determined by counting with a hemocytometer. Endothelial cells detached from the monolayer by EDTA treatment could easily be distinguished from HL-60 cells by morphological differences. In the absence of tumor necrosis factor, 3% of the HL-60 cells bound to the endothelial cells. Treatment of the endothelial cell monolayer with 1 ng/ml tumor necrosis factor increased the number of adhering cells to 59% of total cells added (FIG. 7).
Human umbilical vein endothelial (HUVEC) cells were grown and treated with oligonucleotides as in Example 4. Cells were treated with either ISIS 1939, ISIS 1940, or the control oligonucleotide ISIS 1821 for 4 hours, then stimulated with TNF-α for 20 hours. Basal HUVEC minimally bound HL-60 cells, while TNF-stimulated HUVEC bound 19% of the total cells added. Pretreatment of the HUVEC monolayer with 0.3 ìM ISIS 1939 reduced the adherence of HL-60 cells to basal levels, as shown in FIG. 11.

ICAM-1 [3] = test: Immunoprecipitation of 35S-labelled ICAM-1 from A549 cells; assay type: cell-based, human; details: 1 μM oligonucleotide
Procedure: The specificity of the antisense oligonucleotides ISIS 1570 and ISIS 1939 for ICAM-1 was evaluated by immunoprecipitation of ^35S-labelled proteins. A549 cells were grown to confluence in 25 cm^2 tissue culture flasks and treated with antisense oligonucleotides as described in Example 4. The cells were stimulated with interleukin-1β for 14 hours, washed with methionine-free DMEM plus 10% dialyzed fetal calf serum, and incubated for 1 hour in methionine-free medium containing 10% dialyzed fetal calf serum, 1 μM oligonucleotide and interleukin-1β as indicated. ^35S-Methionine/cysteine mixture (Tran^35S-label, purchased from ICN, Costa Mesa, Calif.) was added to the cells to an activity of 100 μCi/ml and the cells were incubated an additional 2 hours. Cellular proteins were extracted by incubation with 50 mM Tris-HCl pH 8.0, 150 mM NaCl, 1.0% NP-40, 0.5% deoxycholate and 2 mM EDTA (0.5 ml per well) at 4° C. for 30 minutes. The extracts were clarified by centrifugation at 18,000×g for 20 minutes. The supernatants were preadsorbed with 200 μl protein G-Sepharose beads (Bethesda Research Labs, Bethesda Md.) for 2 hours at 4° C., divided equally and incubated with either 5 μg ICAM-1 monoclonal antibody (purchased from AMAC Inc., Westbrook Me.) or HLA-A, B antibody (W6/32, produced by murine hybridoma cells obtained from the American Type Culture Collection, Bethesda, Md.) for 15 hours at 4° C. Immune complexes were trapped by incubation with 200 μl of a 50% suspension of protein G-Sepharose (v/v) for 2 hours at 4° C., washed 5 times with lysis buffer and resolved on an SDS-polyacrylamide gel. Proteins were detected by autoradiography.

[4] = tested on: C8161 human melanoma cells; test: Experimental metastasis assay of oligonucleotide-treated C8161 cells in athymic nude mice; assay type: in vivo
Procedure: To evaluate the role of ICAM-1 in metastasis, experimental metastasis assays were performed by injecting 1×10^5 C8161 cells into the lateral tail vein of athymic nude mice. […] Assoc. Cancer Res. 1990, 13, 353].
After 4 weeks, mice were sacrificed, organs were fixed in Bouin's fixative and metastatic lesions on lungs were scored with the aid of a dissecting microscope. Four-week-old female athymic nude mice (Harlan Sprague Dawley) were used. Animals were maintained under the guidelines of the NIH. Groups of 4-8 mice each were tested in experimental metastasis assays.
Treatment of C8161 cells with antisense oligonucleotides ISIS 1570 and ISIS 2302, complementary to ICAM-1, was performed in the presence of the cationic lipid, Lipofectin (Gibco/BRL, Gaithersburg, Md.). Antisense oligonucleotides were synthesized as described in Example 3. Cells were seeded in 60 mm tissue culture dishes at 10^6 cells/ml and incubated at 37 °C for 3 days, washed with OPTI-MEM (Gibco/BRL) 3 times and 100 μl of OPTI-MEM medium was added to each well. 0.5 μM oligonucleotide and 15 μg/ml lipofectin were mixed at room temperature for 15 minutes. 25 μl of the oligonucleotide-lipofectin mixture was added to the appropriate dishes and incubated at 37° C. for 4 hours. The oligonucleotide-lipofectin mixture was removed and replaced with DME-F12 medium containing 10% fetal calf serum. After 4 hours, 500 U/ml TNF-α was added to the appropriate wells and incubated for 18 hours at which time cells were removed from the plates, counted and injected into athymic nude mice.

[5] = tested on: complementary DNA sequences (ICAM-1 target sites); test: Tm of oligonucleotide hybridized to complementary DNA; assay type: binding, human; details: as E23
Text: The antisense oligonucleotides (synthesized as phosphorothioates) were hybridized to their complementary DNA sequences (synthesized as phosphodiesters). […] Tm's and free energies of duplex formation were obtained from fits of data to a two-state model with linear sloping baselines ([…]. and D. H. […] Results are averages of at least three experiments.

Substance | inhibition of ICAM-1 expression (ICAM-1 [1]; 0.1 μM oligonucleotide, HUVEC, 8 μM DOTMA, interleukin-1β 5 units/ml) | inhibition of ICAM-1 expression (ICAM-1 [1]; 1 μM oligonucleotide, HUVEC, 8 μM DOTMA, interleukin-1β 5 units/ml) | inhibition of ICAM-1 expression (ICAM-1 [1]; 1 μM, HUVEC stimulated with increasing concentrations of tumor necrosis factor and interleukin-1) | effect on ICAM-1 expression after prehybridization to the sense strand (ICAM-1 [1]; COMPOUND 2 prehybridized to COMPOUND 3 prior to addition to the cells) | HL-60 cells adhering, % of total cells added ([2]; 2 μM oligonucleotide, HUVEC treated with 1 ng/ml tumor necrosis factor, control 59%) | number of HL-60 cells adhering to the monolayer ([2]; 2 μM oligonucleotide, absence of tumor necrosis factor treatment) | decrease of ICAM-1 synthesis (ICAM-1 [3]; 5 units/ml interleukin-1β) | No. Lung Metastases per Mouse (Mean ± S.E.M.) ([4]; C8161 cells treated with 0.5 μM oligonucleotide + Lipofectin + TNF-α, Lipofectin + TNF-α 81 ± 8) | No. Lung Metastases per Mouse (Mean ± S.E.M.) ([4]; C8161 cells treated with 0.5 μM oligonucleotide + Lipofectin, no TNF-α, Lipofectin only 64 ± 13) | adherence of HL-60 cells ([2]; 0.3 μM oligonucleotide, TNF-α stimulated HUVEC (control bound 19%)) | Tm relative to other oligonucleotides [5] | ICAM-1 synthesis (ICAM-1 [3]; interleukin-1β)
ISIS 1570: phosphorothioate, human ICAM-1 AUG Codon (64-81), SEQ ID NO 1, TGGGAGCCATAGCGAGGC (antisense dT*dG*dG*dG*dA*dG*dC*dC*dA*dT*dA*dG*dC*dG*dA*dG*dG*dC) | 70% | 90% | inhibits expression of ICAM-1 | attenuated | 17% | did not change the number of cells adhering | approximately 50% | 49 ± 6 | 38 ± 15 |  |  | 
ISIS 1939: P=S, human ICAM-1 3′-Untranslated (1952-1971), SEQ ID NO 15, CCCCCACCACTTCCCCTCTC (antisense dC*dC*dC*dC*dC*dA*dC*dC*dA*dC*dT*dT*dC*dC*dC*dC*dT*dC*dT*dC) |  |  |  |  |  |  |  |  |  | basal levels | lower than that of the majority of the other oligonucleotides | near background
